Laboratory results from patent publication US9051240B2, “Substituted 2-[2-(phenyl) ethylamino] alkaneamide derivatives and their use as sodium and/or calcium channel modulators” (Newron Pharmaceuticals S.P.A., priority 2007, dated 2015).
pIC50, pKi: −log10 of the molar value. Where two headings read alike, the source gives them in different places.

Tests used:
TTXs sodium channels = experiment: TTXs-sodium channel influx assay (fluorescence, ND7/23 cell line); format: cell-based, rat; details: ND7/23 cells, veratridine 100 μM; read-out: Na+ influx IC50
Experimental: ND7/23 rat dorsal root ganglion-derived cell line endogenously expresses a mixed population of TTXs sodium channels. These cells lack of TTXr sodium channels as shown by the absence of their respective transcripts.
ND7/23 cells were grown in DMEM supplemented with 10% FBS and 1 mM sodium piruvate. The cells were seeded at 50,000 cells/well on 96 poly-L-lysine-coated plates and further incubated for 18-24 h before use.
The Membrane Potential Kit Assay (Molecular Devices), based on a negatively charged fluorescent dye able to monitor changes in membrane potential caused by the sodium influx due to the channel opening, was used for the assay.
Cells were incubated with the dye loading for 30 minutes at 25° C. Then, 100 nM of the toxin Anemonia sulcata (used as enhancer of the channel opener response) alone or in the presence of TTX (as reference standard) or test compound were added for further 15 minutes.
The fluorescence (excitation:530 nm, emission: 565 nm wavelength) was measured before and after (40-45 s) the automated injection of the sodium channel opener veratridine (100 μM) using a Victor plate reader (Perkin Elmer).
(§1) The inhibition curves were calculated from 5 concentrations, each in triplicate, and the IC50 determined using linear regression analysis.

L-type calcium channels = experiment: Calcium channel influx assay (fluorescence, AtT20 cell line); format: cell-based, mouse; details: AtT20 cells, 100 mM KCl depolarization; read-out: Ca++ influx IC50
Experimental: AtT20/D16v-F2 mouse pituitary tumour cell line preferentially expresses L-type calcium channels.
AtT20 cells were grown in DMEM with 10% of FBS, 4 mM glutamine. The cells were seeded at 200,000 cells/well on 96 poly-L-lysine-coated plates and further incubated for 18-24 h, before use.
The Ca^++ Kit Assay (Molecular Devices), which is based on a fluorescent calcium indicator to detect the calcium influx determined by depolarizing conditions, was used for the assay.
Cells were incubated with the calcium dye loading for 30 min at 37° C. Then, ω-conotoxin alone (1 μM) or in presence of nifedipine (as reference standard) or test compound were added for further 15 min.
The fluorescence (excitation: 485-emission: 535 nm wavelength) was measured before and after (30-40 sec) the automated injection of 100 mM KCl depolarizing solution using a Victor plate reader (Perkin Elmer).
as §1

[1] = target: Na+ currents in rat cortical neurons; experiment: Patch clamp evaluation of Na+ currents blockade in rat cortical neurons; format: cell-based
Experimental: Cortical neurons were prepared from embryonic Wistar rats (E17-E19). A female rat at date 17-19 of pregnancy was anesthetized and sacrificed. The fetuses (n=4-5) were dissected and placed in ice-cold Hank's solution (Hank's solution (Life tech.14170-088)+glucose 30%+Pen-Strep 100× (Life Tech. 15140-122) 100U-100 μg/ml and Hepes-NaOH 5 mM). The uterus and placenta were removed, the fetuses were decapitated and the heads were placed in ice-cold Hank's solution. Cells were counted and diluted in Neurobasal medium to a concentration of 400000 cells per poly-D-lysine 5 μg/ml treated Petri dish. Cortical neurons were used from day 6th till day 11th after plating, and once a week Neurobasal medium was changed. Experiments on cortical neurons were carried out using standard whole cell patch clamp methods (Hamill et al., Pfugers Arch., 1981 August, 391(12), 85-100). Membrane currents were recorded and filtered at 5 kHz with an Axon Axopatch 200B amplifier and data digitized with an Axon Digidata 1322A (Axon Instruments, CA, USA). Protocol playing and data acquisition were controlled online with Axon pClamp8 software. Measuring and reference electrodes were AgCl-Ag electrodes. A Sutter Instrument P-87 Puller (CA, USA) was used for pulling patch clamp pipettes with a resistance of 2-3 MΩ from Harward borosilicate glass tubes. Cells were continuously superfused with extracellular solutions, using a solution changer Biologic RSC-200. To test the effect of compounds on sodium currents in cortical neurons, cells were clamped at -90 mV, then a two step protocol was used to determine the voltage dependence of the block. […] Tonic block of resting and depolarized currents at a given drug concentration, was calculated as the difference between the peak Na^+ current in the control external bath solution and peak currents with the test substance divided by control peak. Drug concentration-inhibition curves were obtained by plotting tonic blocks in the resting and depolarized condition, versus drug concentrations. Dose-response curves were fitted to the tonic block data, according to the logistic equation: […] Control bath solution contained (mM): […] Internal pipette solution consisted of (mM): […] Compounds were dissolved as stock solutions (20 mM) in DMSO. They were diluted to the final concentrations in the external solution.

MAO-B = MAO-B (Rattus norvegicus (Rat), UniProt P19643); experiment: In vitro MAO-B enzyme activity assay (radioenzymatic, rat brain mitochondria); format: biochemical; details: 14C-PEA 0.5 μM
Sequence of MAO-B (P19643 whole entry): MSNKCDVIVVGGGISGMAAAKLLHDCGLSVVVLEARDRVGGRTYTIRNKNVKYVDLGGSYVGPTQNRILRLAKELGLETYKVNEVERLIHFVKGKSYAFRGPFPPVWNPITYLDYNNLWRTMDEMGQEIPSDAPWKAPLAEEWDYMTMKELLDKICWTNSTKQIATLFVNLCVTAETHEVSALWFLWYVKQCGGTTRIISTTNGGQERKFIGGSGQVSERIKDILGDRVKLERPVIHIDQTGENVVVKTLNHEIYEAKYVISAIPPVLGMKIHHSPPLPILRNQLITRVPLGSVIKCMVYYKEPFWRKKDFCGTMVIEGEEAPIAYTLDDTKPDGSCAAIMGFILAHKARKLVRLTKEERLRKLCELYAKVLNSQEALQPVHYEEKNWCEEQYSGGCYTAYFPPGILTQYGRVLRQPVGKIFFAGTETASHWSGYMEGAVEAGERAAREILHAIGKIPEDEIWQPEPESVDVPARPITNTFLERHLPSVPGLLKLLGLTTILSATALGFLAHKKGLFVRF
Experimental: Male Wistar rats (Harlan, Italy weighing 175-200 g) were sacrificed under light anaesthesia and brains were rapidly removed and homogenized in 8 volumes of ice-cold 0.32 M sucrose buffer containing 0.1 M EDTA, pH 7.4. The crude homogenate was centrifuged at 2220 rpm for 10 minutes and the supernatant recovered. The pellet was homogenized and centrifuged again. The two supernatants were pooled and centrifuged at 9250 rpm for 10 minutes at +4° C. The pellet was resuspended in fresh buffer and centrifuged at 11250 rpm for 10 minutes at +4° C. The resulting pellet was stored at −80° C. The enzyme activity was assessed with a radioenzymatic assay using the substrate ^14C-phenylethylamine (PEA) specific for MAO-B. The mitochondrial pellet (500 μg protein) was resuspended in 0.1 M phosphate buffer (pH 7.4). 200 μl of the suspension were added to a 50 μl solution of the test compound or buffer, and incubated for 30 min at 37° C. (preincubation) then the substrate (50 μl) was added. The incubation was carried out for 10 minutes at 37° C. (^14C-PEA, 0.5 μM). The reaction was stopped by adding 0.2 ml of perchloric acid. After centrifugation, the deaminated metabolites were extracted with 3 ml of toluene and the radioactive organic phase containing the neutral and/or acidic metabolites formed as a result of MAO-B activity was measured by liquid scintillation spectrometry at 90% efficiency. The MAO-B activity was expressed as nmoles of substrate transformed/mg protein/min.

mice [2] = experiment: Formalin test; format: in vivo; details: Mus musculus, po
Experimental: According to a modified protocol from Rosland et al. (Rosland J. H., Tjolsen A., Maehle B., Hole K. Pain (1990) 42: 235-242), mice were injected subcutaneously (s.c.) with 20 μl of 2.7% solution of formalin into the plantar surface of left hindpaw and placed immediately into clear PVC observation chambers (23×12×13 cm). Pain behaviour was quantified by counting the cumulative licking time (s) of the injected paw. Measurements were taken during the early phase (0-5 min) and late phase (20-40 min) after formalin injection (Tjolsen A., Berge O. G., Hunskaar S., Rosland J. H., Hole K. Pain (1992) 51: 5-17).
The test compound was administered p.o. or s.c. 5-45 minutes before formalin injection in a volume of 10 ml/kg body weight to groups of 10 mice per dose. Control group was treated with vehicle.

mice [3] = experiment: Maximal electroshock test (MES) in mice; format: in vivo; details: Mus musculus, iv; mice, MES, i.v.; read-out: MES ED50 mg/kg i.v.
From the text: The maximal electroshock test (MES) is used commonly in the screening of anti-epileptic drugs in rodent models.
Animals and Apparatus: Male CD1 mice weighing 25 g were used. The procedure described by White et al. (White H. S., Woodhead J. H., Franklin M. R., Swinyard E. A., and Wolf H. H. Antiepileptic Drugs (1995) 4th ed: 99-110, Raven Press, Ltd., New York) was followed. An Ugo Basile electroconvulsive generator (Model ECT UNIT 7801) was used to deliver an electrical stimulus sufficient to produce a hindlimb tonic extensor response in at least 97% of control animals. The stimulus was delivered intra-aurally through clip electrodes in mice (0.7 s of a 40 mA shock, with a pulse train of 80 Hz having a pulse duration of 0.4 ms). The acute effect of compounds administered intraperitoneally (i.p.), subcutaneously (s.c.), intravenously (i.v.) or orally (p.o.) 5-120 minutes before MES induction were examined and compared with a vehicle control group. Ten mice were studied per group. Complete suppression of the hindlimb tonic extensor component of seizures was taken as evidence of anticonvulsant activity.
The compounds of the invention were administered p.o. or i.v., at the doses of 0.1-100 mg/kg.

Molecule `C[C@H](NCc1ccc(OCc2cccc(F)c2)cc1)C(N)=O` [safinamide, (S)-(+)-2-[4-(3-fluorobenzyloxy)-benzylamino]-propanamide] has a pIC50 (TTXs sodium channels) of 5.13, a pIC50 (L-type calcium channels) of 4.48 and a pKi ([1]; calculated from Kr and Kdep, read-out: Ki (apparent affinity for the inactivated state)) of 5.44. For the same molecule, the pIC50 ([1]; preconditioning potential -110 mV, read-out: IC50 resting (Kr)) was < 4.00, the pIC50 ([1]; preconditioning potential ~-50 mV, read-out: IC50 depolarized) was 5.15 and the pIC50 ([1]; resting condition, figure in parentheses after >100, read-out: IC50 resting (Kr), value in parentheses) was 3.74. For the same molecule, the pIC50 (MAO-B) was 7.00, the ED50 (mice [2]) was 69.4 mg/kg and the ED50 (mice [3]) was 4 mg/kg.
